Patent US20230075856A1, “CYCLIC SULFAMIDE COMPOUNDS FOR TREATMENT OF HBV” (Assembly Biosciences, Inc., priority 2018, published 2023)

These molecules were tested on HBV viral load production from HepAD38 cells (assay: Viral production from HepAD38 cells: viral load in supernatant by qPCR of the HBV core sequence). Conditions: 5 days incubation, qPCR of supernatant HBV DNA vs DMSO control, read-out: viral load lowering EC50 (Activity).
Format: cell-based
Summary of the method: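 Viral load was measured by qPCR of the HBV core region in supernatant, quantified against DNA standards and compared with DMSO wells. Cells (50,000/well, tetracycline withdrawn, 2% FBS) received compound from 10 μM final for 5 days; EC50 from four-parameter nonlinear regression.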
In the case of `CN1C(C(=O)Nc2ccc(F)c(Cl)c2)CC(C(=O)NCc2cnc(-c3ccccc3Cl)s2)NS1(=O)=O` (single isomer, unassigned) [Compound 912-ISOMER-B, N3-(3-chloro-4-fluoro-phenyl)-N5-[[2-(2-chlorophenyl)thiazol-5-yl]methyl]-2-methyl-1,1-dioxo-1,2,6-thiadiazinane-3,5-dicarboxamide], the EC50 is reported as < 50 nM. `Cc1nc(-c2ccccc2)sc1CNC(=O)C1CC(C(=O)Nc2ccc(F)c(Cl)c2)N(C)S(=O)(=O)N1` (single isomer, unassigned) [Compound 914-ISOMER-B, N3-(3-chloro-4-fluoro-phenyl)-2-methyl-N5-[(4-methyl-2-phenyl-thiazol-5-yl)methyl]-1,1-dioxo-1,2,6-thiadiazinane-3,5-dicarboxamide] gave an EC50 of 50 to 100 nM. With `CN1C(C(=O)Nc2ccc(F)c(Cl)c2)CC(C(=O)NCc2cnc(-c3ccc(F)cc3)s2)NS1(=O)=O` (single isomer, unassigned) [Compound 916-ISOMER-B, N3-(3-chloro-4-fluoro-phenyl)-N5-[[2-(4-fluorophenyl)thiazol-5-yl]methyl]-2-methyl-1,1-dioxo-1,2,6-thiadiazinane-3,5-dicarboxamide] the EC50 was < 50 nM. In the case of `CN1C(C(=O)Nc2ccc(F)c(Cl)c2)CC(C(=O)NCc2cnc(-c3ccc(C#N)cc3F)s2)NS1(=O)=O` (single isomer, unassigned) [Compound 920-ISOMER-B, N3-(3-chloro-4-fluoro-phenyl)-N5-[[2-(4-cyano-2-fluoro-phenyl)thiazol-5-yl]methyl]-2-methyl-1,1-dioxo-1,2,6-thiadiazinane-3,5-dicarboxamide], the EC50 is reported as < 50 nM. In the case of `CCN1CCC(Oc2ccc(-c3ncc(CNC(=O)C4CC(C(=O)Nc5ccc(F)c(Cl)c5)N(C)S(=O)(=O)N4)s3)cc2)CC1` (single isomer, unassigned) [Compound 921-ISOMER-B, N3-(3-chloro-4-fluoro-phenyl)-N5-[[2-[4-[(1-ethyl-4-piperidyl)oxy]phenyl]thiazol-5-yl]methyl]-2-methyl-1,1-dioxo-1,2,6-thiadiazinane-3,5-dicarboxamide], the EC50 is reported as 50 to 100 nM. `CN1C(C(=O)Nc2ccc(F)c(Cl)c2)CC(C(=O)NCc2cnc(-c3ccc(OCCCN4CCSCC4)cc3)s2)NS1(=O)=O` (single isomer, unassigned) [Compound 925-ISOMER-B, N3-(3-chloro-4-fluoro-phenyl)-2-methyl-1,1-dioxo-N5-[[2-[4-(3-thiomorpholinopropoxy)phenyl]thiazol-5-yl]methyl]-1,2,6-thiadiazinane-3,5-dicarboxamide] showed an EC50 of 100 to 10000 nM. With `CN1C(C(=O)Nc2ccc(F)c(Cl)c2)CC(C(=O)NCc2ncc(-c3ccccc3)s2)NS1(=O)=O` (single isomer, unassigned) [Compound 931-ISOMER-B, N3-(3-chloro-4-fluoro-phenyl)-2-methyl-1,1-dioxo-N5-[(5-phenylthiazol-2-yl)methyl]-1,2,6-thiadiazinane-3,5-dicarboxamide] the EC50 was < 50 nM. With `COc1ccc(-c2cnc(CNC(=O)C3CC(C(=O)Nc4ccc(F)c(Cl)c4)N(C)S(=O)(=O)N3)s2)cc1` (single isomer, unassigned) [Compound 932-ISOMER-B, N3-(3-chloro-4-fluoro-phenyl)-N5-[[5-(4-methoxyphenyl)thiazol-2-yl]methyl]-2-methyl-1,1-dioxo-1,2,6-thiadiazinane-3,5-dicarboxamide] the EC50 was < 50 nM.

Same assay, conditions: Hepatitis B virus, HePAD38, 120 h, 5 days incubation, qPCR of supernatant HBV DNA vs DMSO control, read-out: viral load lowering EC50 (Activity)
Work on `CN1C(C(=O)Nc2ccc(F)c(Cl)c2)CC(C(=O)NCc2cnc(-c3cccnc3)s2)NS1(=O)=O` (single isomer, unassigned) [Compound 911-ISOMER-A, N3-(3-chloro-4-fluoro-phenyl)-2-methyl-1,1-dioxo-N5-[[2-(3-pyridyl)thiazol-5-yl]methyl]-1,2,6-thiadiazinane-3,5-dicarboxamide] yielded an EC50 of 100 to 10000 nM. In the case of `CN1C(C(=O)Nc2ccc(F)c(Cl)c2)CC(C(=O)NCc2cnc(-c3ccccc3Cl)s2)NS1(=O)=O` (single isomer, unassigned) [Compound 912-ISOMER-A, N3-(3-chloro-4-fluoro-phenyl)-N5-[[2-(2-chlorophenyl)thiazol-5-yl]methyl]-2-methyl-1,1-dioxo-1,2,6-thiadiazinane-3,5-dicarboxamide], the EC50 is reported as 100 to 10000 nM. `CN1C(C(=O)Nc2ccc(F)c(Cl)c2)CC(C(=O)NCc2cnc(-c3cccc(Cl)c3)s2)NS1(=O)=O` (single isomer, unassigned) [Compound 913-ISOMER-A, N3-(3-chloro-4-fluoro-phenyl)-N5-[[2-(3-chlorophenyl)thiazol-5-yl]methyl]-2-methyl-1,1-dioxo-1,2,6-thiadiazinane-3,5-dicarboxamide] showed an EC50 of 100 to 10000 nM. With `Cc1nc(-c2ccccc2)sc1CNC(=O)C1CC(C(=O)Nc2ccc(F)c(Cl)c2)N(C)S(=O)(=O)N1` (single isomer, unassigned) [Compound 914-ISOMER-A, N3-(3-chloro-4-fluoro-phenyl)-2-methyl-N5-[(4-methyl-2-phenyl-thiazol-5-yl)methyl]-1,1-dioxo-1,2,6-thiadiazinane-3,5-dicarboxamide] the EC50 was < 50 nM. Work on `CN1C(C(=O)Nc2ccc(F)c(Cl)c2)CC(C(=O)NCc2cnc(-c3ccc(F)cc3)s2)NS1(=O)=O` (single isomer, unassigned) [Compound 916-ISOMER-A, N3-(3-chloro-4-fluoro-phenyl)-N5-[[2-(4-fluorophenyl)thiazol-5-yl]methyl]-2-methyl-1,1-dioxo-1,2,6-thiadiazinane-3,5-dicarboxamide] yielded an EC50 of 100 to 10000 nM. `CN1C(C(=O)Nc2ccc(F)c(Cl)c2)CC(C(=O)NCc2cnc(-c3ccc(C#N)cc3F)s2)NS1(=O)=O` (single isomer, unassigned) [Compound 920-ISOMER-A, N3-(3-chloro-4-fluoro-phenyl)-N5-[[2-(4-cyano-2-fluoro-phenyl)thiazol-5-yl]methyl]-2-methyl-1,1-dioxo-1,2,6-thiadiazinane-3,5-dicarboxamide] showed an EC50 of 100 to 10000 nM. `CCN1CCC(Oc2ccc(-c3ncc(CNC(=O)C4CC(C(=O)Nc5ccc(F)c(Cl)c5)N(C)S(=O)(=O)N4)s3)cc2)CC1` (single isomer, unassigned) [Compound 921-ISOMER-A, N3-(3-chloro-4-fluoro-phenyl)-N5-[[2-[4-[(1-ethyl-4-piperidyl)oxy]phenyl]thiazol-5-yl]methyl]-2-methyl-1,1-dioxo-1,2,6-thiadiazinane-3,5-dicarboxamide] was tested, and the EC50 was < 50 nM. In the case of `CN1C(C(=O)Nc2ccc(F)c(Cl)c2)CC(C(=O)NCc2cnc(-c3ccc(OCCN4CCCCC4)cc3)s2)NS1(=O)=O` (single isomer, unassigned) [Compound 922-ISOMER-A, N3-(3-chloro-4-fluoro-phenyl)-2-methyl-1,1-dioxo-N5-[[2-[4-[2-(1-piperidyl)ethoxy]phenyl]thiazol-5-yl]methyl]-1,2,6-thiadiazinane-3,5-dicarboxamide], the EC50 is reported as 100 to 10000 nM. In the case of `CN1C(C(=O)Nc2ccc(F)c(Cl)c2)CC(C(=O)NCc2cnc(-c3ccc(O)cc3)s2)NS1(=O)=O` (single isomer, unassigned) [Compound 924-ISOMER-B, N3-(3-chloro-4-fluoro-phenyl)-N5-[[2-(4-hydroxyphenyl)thiazol-5-yl]methyl]-2-methyl-1,1-dioxo-1,2,6-thiadiazinane-3,5-dicarboxamide], the EC50 is reported as < 50 nM. `CN1C(C(=O)Nc2ccc(F)c(Cl)c2)CC(C(=O)NCc2cnc(-c3ccc(OCCCN4CCSCC4)cc3)s2)NS1(=O)=O` (single isomer, unassigned) [Compound 925-ISOMER-A, N3-(3-chloro-4-fluoro-phenyl)-2-methyl-1,1-dioxo-N5-[[2-[4-(3-thiomorpholinopropoxy)phenyl]thiazol-5-yl]methyl]-1,2,6-thiadiazinane-3,5-dicarboxamide] was tested, and the EC50 was < 50 nM. `CN1C(C(=O)N(Cc2cnc(-c3cscn3)s2)c2ccc(F)c(Cl)c2)CC(C(N)=O)NS1(=O)=O` (single isomer, unassigned) [Compound 929-ISOMER-A, N3-(3-chloro-4-fluoro-phenyl)-2-methyl-1,1-dioxo-N-[(2-thiazol-4-ylthiazol-5-yl)methyl]-1,2,6-thiadiazinane-3,5-dicarboxamide] was tested, and the EC50 was 100 to 10000 nM. For `CN1C(C(=O)Nc2ccc(F)c(Cl)c2)CC(C(=O)NCc2cnc(-c3cscn3)s2)NS1(=O)=O` (single isomer, unassigned) [Compound 929-ISOMER-B, N3-(3-chloro-4-fluoro-phenyl)-2-methyl-1,1-dioxo-N5-[(2-thiazol-4-ylthiazol-5-yl)methyl]-1,2,6-thiadiazinane-3,5-dicarboxamide], the EC50 was < 50 nM. `CN1C(C(=O)Nc2ccc(F)c(Cl)c2)CC(C(=O)NCc2ncc(-c3ccccc3)s2)NS1(=O)=O` (single isomer, unassigned) [Compound 931-ISOMER-A, N3-(3-chloro-4-fluoro-phenyl)-2-methyl-1,1-dioxo-N5-[(5-phenylthiazol-2-yl)methyl]-1,2,6-thiadiazinane-3,5-dicarboxamide] gave an EC50 of 100 to 10000 nM. For `COc1ccc(-c2cnc(CNC(=O)C3CC(C(=O)Nc4ccc(F)c(Cl)c4)N(C)S(=O)(=O)N3)s2)cc1` (single isomer, unassigned) [Compound 932-ISOMER-A, N3-(3-chloro-4-fluoro-phenyl)-N5-[[5-(4-methoxyphenyl)thiazol-2-yl]methyl]-2-methyl-1,1-dioxo-1,2,6-thiadiazinane-3,5-dicarboxamide], the EC50 was 100 to 10000 nM. `CN(C)CC(C)(C)COc1ccc(-c2ncc(CNC(=O)C3CC(C(=O)Nc4ccc(F)c(Cl)c4)N(C)S(=O)(=O)N3)s2)cc1` (single isomer, unassigned) [Compound 943-ISOMER-A, N3-(3-chloro-4-fluoro-phenyl)-N5-[[2-[4-[3-(dimethylamino)-2,2-dimethyl-propoxy]phenyl]thiazol-5-yl]methyl]-2-methyl-1,1-dioxo-1,2,6-thiadiazinane-3,5-dicarboxamide] was tested, and the EC50 was < 50 nM.
